Columns and labels:
[1] = system: 3T3-L1 pre-adipocyte cells; assay: Pro-lipolytic activity in differentiated adipocytes (free glycerol release); assay type: cell-based, mouse; settings: 3T3-L1 (Table IV)
Protocol: Similarly, the pro-lipolytic activity of the ethyl actate extract (LI/DD-II/054A/01) of Sphaeranthus indicus was assessed in differentiated/mature adipocytes using 3T3-L1 pre-adipocyte cells. The lipolytic activity was assessed in mature adipocytes by measuring free glycerol secreted into the culture medium as per the procedure of Adipolysis Assay Kit (Chemicon International, USA).
The lipolytic activity was assessed in mature adipocytes as per the procedure of Chemicon International, USA, by measuring free glycerol secreted into the culture medium. One hundred thousand 3T3-L1 […] pre-adipocyte cells in Dulbecco's Modified Eagles Medium (DMEM) containing 10% Fetal Bovine Serum (FBS) were taken into each well of a 24-well plate and incubated for 48 h at 37° C. and 5% CO2. The differentiation of pre-adipocyte cells was initiated in a differentiation medium containing 10 μg/ml insulin, 1.0 μM dexamethasone, and 0.5 mM isobutylmethylxanthine (IBMX). The cells were differentiated for 5 days and then the culture medium was removed. […] The samples and the controls were incubated for 15 min, and the absorbance was read at 540 nm. […]

α-glucosidase = assay: α-Glucosidase inhibition (p-nitrophenyl α-D-glucopyranose); assay type: biochemical; settings: pH 7, room temperature
Protocol: α-Glucosidase inhibitory activity was measured using the in vitro method developed by D. Prasanth et al., (Fitoterapia 2001, 72, 686-688). In a micro plate well was taken 50 μL of α-glucosidase enzyme (0.4 U/mL), and treated with 90 μL of 100 mM phosphate buffer (pH 7) and 10 μL test substances (α-mangostin, γ-mangostin and AR 933) or vehicle control. The contents were mixed well and the reaction mixtures were incubated at room temperature for 5 min, and then added 50 μL of p-nitrophenyl α-D-glucopyranose (20 mM) as substrate. The contents were mixed well and again incubated at room temperature for 15 min. The reaction was stopped by the addition of 30 μL of sodium carbonate solution (135 mM). The absorbance was measured at 405 nm using micro plate reader. Control and test blank ODs were obtained by replacing enzyme with buffer. Percentage inhibitions were calculated by comparing mean test OD with mean control OD. {% inhibition=[(COD−TOD)/COD]×100}. The IC50 values were calculated by linear regression analysis of the dose response curve.

α-amylase = assay: α-Amylase inhibition (DNS method); assay type: biochemical; settings: 1% soluble starch as substrate
Protocol: α-Amylase inhibitory activity was measured using the dinitrosalicylic acid (DNS) method developed by Bernfeld (Methods in Enzymology, 1955, Vol. 1, pp 149-158), improved by Jamieson et al (Journal of Dental Research 1969; 48(3): 483) and adopted for testing inhibitory potential of test substances by M. C. M da Silva et al (2004, Pesq. Agropec. bras., Brasilia, 2004; 39(3); pp 201-208) using 1% soluble starch as substrate.
The test substances (α-mangostin, γ-mangostin and AR 933) were pre-incubated with α-amylase 100 μL (10-25 U/mL) at room temperature for 20 minutes prior to the addition of 100 μL of the substrate solution followed by incubation at 37° C. for 10 minutes. The reactions were stopped by the addition of 200 μL of DNS reagent, followed by color development by placing the tubes in boiling water for 5 minutes. After addition of 3.6 mL distilled water, the absorbance was read at 470 nm. Known α-amylase inhibitor was used as positive control and vehicle was used as negative control. Assays were carried out at least in duplicate. Percentage inhibition will be calculated by comparing mean test OD with mean control OD. {% inhibition=[(COD−TOD)/COD]×100}. The IC50 values were calculated by linear regression analysis of the dose response curve.

[2] = system: 3T3-L1 mouse pre-adipocyte cells; assay: Inhibition of lipid accumulation in differentiated adipocytes (Oil Red O); assay type: cell-based; settings: 10 μg/ml; 3T3-L1 (Table III)
Protocol: The inhibition of fat accumulation in the treated cells was compared with the mock treated differentiated adipocytes and percentage inhibition was measured.
One hundred thousand 3T3-L1 […] pre-adipocyte cells in Dulbecco's Modified Eagles Medium (DMEM) containing 10% Fetal Bovine Serum (FBS) were taken into each well of a 24-well plate and incubated for 48 h at 37° C. and 5% CO2. The differentiation of pre-adipocyte cells was initiated in a differentiation medium containing 10 μg/ml insulin, 1.0 μM dexamethasone, and 0.5 mM isobutylmethylxanthine (IBMX) for 48 h. After this the medium was replaced by DMEM containing 10 μg/ml insulin and incubated for 3 days. Then the differentiating cells were treated 10 μg/ml of Sphaeranthus indicus ethyl acetate extract (LI/DD-II/054A/01) and 0.5 μg/ml of 7-hydroxyfrullanolide (LI054A01) and maintained in the medium for another 3-5 days. The cells incubated with 0.1% DMSO were considered as the vehicle control. After the incubation period, cells were washed with phosphate buffered saline (PBS) and fixed with 10% buffered formalin for 1 h at room temperature. One small aliquot of cell suspension was separated for cell counting in hemocytometer chamber. Fixed cells were stained with Oil Red O solution to measure the cellular neutral lipid accumulation. Briefly, cells were washed with PBS, fixed with 10% buffered formalin and stained with Oil Red O solution (0.5 g in 100 ml isopropanol) for 10 min. After removing the staining solution, the dye retained in the cells will be eluted into isopropanol and OD measured at 550 nm. The inhibition of fat accumulation in the treated cells was compared with the mock treated differentiated adipocytes. The treated and control cells were also analyzed and compared for inhibition of lipid accumulation visually under microscope and recorded digitally in suitable image capture system. The anti-adipogenic activities shown by Sphaeranthus Indicus ethyl acetate extract (LI/DD-II/054A/01) and LIO054A01 are summarized in the following table.

Structure (SMILES)	% acceleration of lipolysis 25 μg/ml [1]	IC50 (μg/ml) for α-glucosidase (α-glucosidase)	IC50 (μg/ml) for α-amylase (α-amylase)	% inhibition of Lipid accumulation 10 μg/ml [2]
COc1c(O)cc2oc3cc(O)c(CC=C(C)C)c(O)c3c(=O)c2c1CC=C(C)C [α-mangostin]	156.56%	0.30 µg/mL	3.99 µg/mL	16.06%
CC(C)=CCc1c(O)cc2oc3cc(O)c(O)c(CC=C(C)C)c3c(=O)c2c1O [γ-mangostin]	4.52%	0.16 µg/mL	3.88 µg/mL	61.57%

Source: patent US9241964B2, “Composition from Sphaeranthus indicus and Garcinia mangostana for the control of metabolic syndrome” (LAILA NUTRACEUTICALS, priority 2009, dated 2016)
